Measurements: patent US20260014184A1, “ADENOSINE DERIVATIVES FOR USE IN THE TREATMENT OF NEURODEGENERATIVE DISORDERS AND CANCER” (UNIVERSITY COLLEGE CARDIFF CONSULTANTS LIMITED, priority 2022, published 2026)

Columns and labels:
Assay type in all cases: cell-based
PINK1 KO MEFs = experiment: MitoQC mitophagy assay, PINK1 knock-out MEF; conditions: 5 μM, 24 h
Description: (§1) With the inhibition of ubiquitin phosphorylation and parkin localisation to the mitochondria by kinetin riboside and the nucleoside analogue 9c, we next asked whether these compounds still induce mitophagy in a PINK1 dependent manner. To explore this, we employed the established MitoQC assay for measuring mitophagy in cells^11,12.

Ub Ser65 phosphorylation [1] = experiment: Phospho-Ub (Ub Ser65) immunoblotting in parkin- or YFP-parkin-transfected HeLa cells; conditions: for inhibition of PINK1-mediated ubiquitin phosphorylation (summary statement): in cells and astrocytes, induced by mitochondrial depolarizing agents CCCP and niclosamide
Procedure: (§2) Both HeLa and parkin-overexpressed HeLa cells were maintained in DMEM high glucose (Gibco), 10% FBS (Sigma-Aldrich) at 37° C. with 5% CO2. For experiments, cells were counted and seeded into a range of culture plates, depending on the experiment, cell counting was done using the Cellometer Auto T4 with TrypanBlue (Gibco). […] Alternatively, HeLa cells were seeded in well plates and then transfected with […] of parkin cDNA using the PEI method once the plated cells reached 60% confluency. After 6 hours, the media was changed. Sub-culturing was done when the cells reached ˜90% confluency.
(§3) Cell culture with 70-80% confluency was lysed as follows: cells were washed with Phosphate Buffer Saline (PBS) (Sigma). 150 μl of lysis buffer was used on each well containing either: • 50 mM Tris-HCl pH 7.5, 1 mM EDTA, 1 mM EGTA, 0.27 M sucrose, 1 mM Na3VO4, 50 mM NaF, 5 mM Na pyrophosphate and fresh 1 mM benzamidine, 1% NP-40 and […]; or • 50 mM Tris-HCl pH 7.5, 1 mM EDTA, 1 mM EGTA, 10 mM Na β-glycerophosphate, 0.27 M sucrose, 1 mM Na3VO4, 50 mM NaF, 10 mM Na pyrophosphate with fresh 1 mM benzamidine, 1% Triton X-100, complete EDTA-free Protease Inhibitor, Phosphatase inhibitor cocktail 3 and 100 μM of 2-chloroacetamide.
(§4) The cells were scrapped and transferred to the microtube and eventually spun down at 12,000 rpm for 15 minutes at 4° C. Finally, the supernatant was transferred to the new microtubes and stored at −20° C. Protein concentration was measured using Bradford Assay. Serial concentrations 0.125; 0.25; 0.5 and 1 mg/ml of Bovine Serum Albumin (BSA) (Sigma Aldrich) were used as a standard. Samples were boiled at 90° C. for 5 minutes in SDS sample loading buffer.
The next day membranes were washed in TBST and incubated with horse radish peroxidase (HRP)-conjugated antibodies for 1 h at room temperature with agitation. Following TBST washes, proteins were visualised using Amersham™ ECL™ Prime kit (GE Biosciences) and imaged using the Bio-rad ChemicDoc. Primary antibodies used for western blotting; GAPDH (Abcam cat #ab9485), Phospho-Ub Ser 65 (Sigma-Aldrich cat #ABS1513-1), LC3B (Cell Signaling cat #3868S). Secondary antibodies used for western blotting; anti-rabbit HRP (Agilent Dako cat #P0399), anti-mouse HRP (Agilent Dako cat #P0260).
To explore this, we first treated parkin-transfected HeLa cells for 24 h with 50 μM kinetin, kinetin riboside or kinetin riboside ProTide, a monophosphate prodrug of kinetin riboside.

Ub Ser65 phosphorylation [2] = experiment: Immunofluorescence for Ub Ser65 phosphorylation in YFP-parkin transfected HeLa cells; conditions: immunofluorescence; for impact on ubiquitin phosphorylation, compound alone: 50 μM, 24 h, no niclosamide or CCCP
Procedure: (§5) Cells were seeded on PerkinElmer PhenoPlate 96-well plates, followed by treatment with compounds. Cells were fixed in chilled 4% PFA for 10 min followed by washes in PBS. […] Following PBS washes, cells were blocked using blocking buffer (PBS, 5% BSA, 0.1% Tween20) for 1 h at room temperature. Primary antibodies were diluted in blocking buffer and added to cells to be incubated overnight at 4° C. Cells were subsequently washed with PBS-T and the appropriate secondary antibodies (diluted in blocking buffer) were added for 2 h at room temperature in darkness. 10 μg/ml of Hoechst 33258 stain was added with secondary antibodies when required. Cells were again washed with PBS-T followed by addition of PBS with 0.02% sodium azide. Cells were then stored at 4° C. until ready for imaging. Primary antibodies used for immunofluorescence are as follows: Phospho-Ub Ser 65 (Sigma-Aldrich cat #ABS1513-1), TOM20 (Santa-Cruz cat #sc-17764). Secondary antibodies and stains used in immunofluorescence; Anti-IgG2a Alexa Fluor™ 546 (ThermoFisher cat #A21133) Anti-rabbit Alexa Fluor™ 647 (ThermoFisher cat #A21244), Hoechst 33258 stain (Sigma-Aldrich cat #B2883).
(§6) Confocal microscopy was performed using a Zeiss LSM800 w/Airyscan fluorescent microscope equipped with lasers emitting at 405 nm, 488 nm, 561 nm and 640 nm. All images were captured using a 40x oil immersion objective lens and processed using Zeiss ZEN software. Images were analysed and quantified using Columbus (PerkinElmer) and TIBCO Spotfire software.
(§7) First, HeLa cells transfected with YFP-parkin were either left untreated or treated with 50 μM kinetin riboside, nucleosides 9a and 9c for 24 h.

[3] = tested on: immortalised MEF expressing PINK1 wild-type (WT); experiment: MitoQC mitophagy assay, MEF expressing PINK1 wild-type; conditions: 5 μM, 24 h
Description: as §1

[4] = tested on: HeLa cells transfected with YFP-parkin; experiment: Immunofluorescence for YFP-parkin localisation and TOM20 (mitochondrial fragmentation); conditions: for parkin localisation to the mitochondria after pre-treatment followed by CCCP, compared to CCCP alone: 50 μM 24 h, then 10 μM CCCP; for impact on mitochondrial fragmentation (TOM20), compound alone / impact on parkin localisation, compound alone: 50 μM, 24 h, no niclosamide or CCCP
Procedure: as §5, §6, §7

PINK1 = molecular target: T1, PINK1 (Homo sapiens, UniProt Q9BXM7); experiment: PINK1 activation in cells judged by parkin Ser65 phosphorylation (parkin-transfected HeLa cells); conditions: 50 μM, 1 h
T1 construct: HeLa cells, which express PINK1 endogenously; endogenous in cells; host or cells: HeLa cells transiently transfected with parkin
T1 sequence (Q9BXM7 78-581): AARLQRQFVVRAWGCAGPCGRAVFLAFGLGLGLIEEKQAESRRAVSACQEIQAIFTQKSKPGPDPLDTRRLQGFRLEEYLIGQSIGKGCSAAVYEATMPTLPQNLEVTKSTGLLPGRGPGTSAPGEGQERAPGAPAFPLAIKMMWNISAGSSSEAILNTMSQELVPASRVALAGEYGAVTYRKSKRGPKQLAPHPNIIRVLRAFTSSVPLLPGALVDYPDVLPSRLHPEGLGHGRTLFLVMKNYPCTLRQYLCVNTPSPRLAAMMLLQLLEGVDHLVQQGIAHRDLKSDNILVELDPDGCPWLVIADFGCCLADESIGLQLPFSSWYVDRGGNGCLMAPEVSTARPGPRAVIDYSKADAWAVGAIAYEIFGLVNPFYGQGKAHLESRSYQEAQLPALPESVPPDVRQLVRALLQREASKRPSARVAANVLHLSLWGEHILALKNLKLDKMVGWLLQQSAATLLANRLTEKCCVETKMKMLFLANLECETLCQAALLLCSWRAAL
Procedure: as §2, §3, §4

Compound | mitophagy in PINK1 KO MEFs (PINK1 KO MEFs) | inhibition of PINK1-mediated ubiquitin phosphorylation (summary statement) (Ub Ser65 phosphorylation [1]) | reduction in ubiquitin phosphorylation and parkin localisation compared with kinetin riboside (Ub Ser65 phosphorylation [2]; 50 μM 24 h, then 10 μM CCCP) | ubiquitin Ser65 phosphorylation after pre-treatment followed by CCCP, compared to CCCP alone (Ub Ser65 phosphorylation [2]; 50 μM 24 h, then 10 μM CCCP) | impact on ubiquitin phosphorylation, compound alone (Ub Ser65 phosphorylation [2]) | level and PINK1 dependence of mitophagy (WT versus KO MEFs) [3] | mitophagy in PINK1 WT MEFs [3] | parkin localisation to the mitochondria after pre-treatment followed by CCCP, compared to CCCP alone [4] | impact on mitochondrial fragmentation (TOM20), compound alone [4] | impact on parkin localisation, compound alone [4] | activation of PINK1 as judged by parkin Ser65 phosphorylation (PINK1) | inhibition of CCCP-induced phosphorylation of ubiquitin by pre-treatment (Ub Ser65 phosphorylation [1]; YFP-parkin HeLa cells, 50 μM 24 h, then 10 μM CCCP 1 h, immunoblot) | inhibition of niclosamide-induced phosphorylation of ubiquitin by pre-treatment (Ub Ser65 phosphorylation [1]; YFP-parkin HeLa cells, 50 μM 24 h, then 10 μM niclosamide 1 h, immunoblot) | inhibition of CCCP-induced phosphorylation of ubiquitin by pre-treatment (Ub Ser65 phosphorylation [1]; parkin-transfected HeLa cells, 50 μM 24 h, then 10 μM CCCP 3 h, immunoblot) | phosphorylation of ubiquitin (Ub Ser65), compound alone (Ub Ser65 phosphorylation [1]; parkin-transfected HeLa cells, 50 μM, 24 h, no CCCP, immunoblot) | inhibition of ubiquitin phosphorylation by pre-treatment (Ub Ser65 phosphorylation [2]; YFP-parkin HeLa cells, 50 μM 24 h prior to 10 μM niclosamide or CCCP 1 h)
OC[C@H]1O[C@@H](n2cnc3c(NCc4ccccc4)ncnc32)[C@H](O)[C@@H]1O [9c, (2R,3R,4S,5R)-2-(6-(benzylamino)-9H-purin-9-yl)-5-(hydroxymethyl)tetrahydrofuran-3,4-diol] | not observed | inhibit ubiquitin phosphorylation | appears stronger than that induced by kinetin riboside | significant reduction | did not have any impact | low level of mitophagy in a PINK1-dependent manner | induced mitophagy | significant reduction | did not have any impact | did not have any impact | low level activation of PINK1 |  |  |  |  | 
OC[C@H]1O[C@@H](n2cnc3c(NCc4ccco4)ncnc32)[C@H](O)[C@@H]1O [kinetin riboside, N^6-(2-furanylmethyl) adenosine] | not observed | inhibit ubiquitin phosphorylation |  | inhibited | did not have any impact | low level of mitophagy in a PINK1-dependent manner | induced mitophagy | inhibition | did not have any impact | did not have any impact | low level activation of PINK1 | inhibited | inhibited | inhibited the CCCP-induced phosphorylation of ubiquitin | did not lead to any notable phosphorylation of ubiquitin | inhibited ubiquitin phosphorylation
